Experiments:
[1] = tested on: Tyrosine-protein kinase ABL1 (Homo sapiens), P00519 [F317L]; conditions: Compound concentration 1000.0 nM
[2] = target: Tyrosine-protein kinase receptor UFO (Homo sapiens) (UniProt P30530); conditions: Compound concentration 1000.0 nM
[3] = target: Tyrosine-protein kinase SYK (Homo sapiens) (UniProt P43405); conditions: Compound concentration 1000.0 nM
[4] = target: Tyrosine-protein kinase ABL2 (Homo sapiens) (UniProt P42684); conditions: Compound concentration 1000.0 nM
[5] = target: Casein kinase I isoform epsilon (Homo sapiens) (UniProt P49674); conditions: Compound concentration 1000.0 nM
[6] = target: LIM domain kinase 1 (Homo sapiens) (UniProt P53667); conditions: Compound concentration 1000.0 nM
[7] = target: Membrane-associated tyrosine- and threonine-specific cdc2-inhibitory kinase (Homo sapiens) (UniProt Q99640); conditions: Compound concentration 1000.0 nM
[8] = species: Rattus norvegicus; conditions: Compound concentration 10.0 uM
[9] = target: Citron Rho-interacting kinase (Homo sapiens) (UniProt O14578); conditions: Compound concentration 1000.0 nM
[10] = target: Mitogen-activated protein kinase kinase kinase 12 (Homo sapiens) (UniProt Q12852); conditions: Compound concentration 1000.0 nM
[11] = target: T1, 5-hydroxytryptamine receptor 3A (Homo sapiens) (UniProt P46098); conditions: Compound concentration 10.0 uM
T1 sequence (whole entry): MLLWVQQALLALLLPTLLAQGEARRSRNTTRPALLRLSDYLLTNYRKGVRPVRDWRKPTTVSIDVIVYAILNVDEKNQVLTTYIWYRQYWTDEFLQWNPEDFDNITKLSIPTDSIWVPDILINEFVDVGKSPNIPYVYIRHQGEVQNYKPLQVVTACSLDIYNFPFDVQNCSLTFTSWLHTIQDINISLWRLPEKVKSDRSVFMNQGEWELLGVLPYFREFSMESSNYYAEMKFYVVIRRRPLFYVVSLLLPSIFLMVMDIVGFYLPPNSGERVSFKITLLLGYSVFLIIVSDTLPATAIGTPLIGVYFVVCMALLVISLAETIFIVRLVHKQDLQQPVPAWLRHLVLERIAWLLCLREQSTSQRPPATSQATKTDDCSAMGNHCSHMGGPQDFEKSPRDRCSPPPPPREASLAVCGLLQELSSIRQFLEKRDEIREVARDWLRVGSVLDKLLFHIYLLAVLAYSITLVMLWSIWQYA

[12] = target: Histamine H4 receptor (Homo sapiens) (UniProt Q9H3N8); conditions: Compound concentration 10.0 uM
[13] = target: Serine/threonine-protein kinase Nek4 (Homo sapiens) (UniProt P51957); conditions: Compound concentration 1000.0 nM
[14] = target: Serine/threonine-protein kinase Sgk3 (Homo sapiens) (UniProt Q96BR1); conditions: Compound concentration 1000.0 nM
[15] = target: Receptor-type tyrosine-protein kinase FLT3 (Homo sapiens) (UniProt P36888); conditions: Compound concentration 1000.0 nM
[16] = target: Rho-associated protein kinase 1 (Homo sapiens) (UniProt Q13464); conditions: Compound concentration 1000.0 nM
Rho-associated protein kinase 1 (Homo sapiens), sequence (Q13464 2-1354 limits assumed): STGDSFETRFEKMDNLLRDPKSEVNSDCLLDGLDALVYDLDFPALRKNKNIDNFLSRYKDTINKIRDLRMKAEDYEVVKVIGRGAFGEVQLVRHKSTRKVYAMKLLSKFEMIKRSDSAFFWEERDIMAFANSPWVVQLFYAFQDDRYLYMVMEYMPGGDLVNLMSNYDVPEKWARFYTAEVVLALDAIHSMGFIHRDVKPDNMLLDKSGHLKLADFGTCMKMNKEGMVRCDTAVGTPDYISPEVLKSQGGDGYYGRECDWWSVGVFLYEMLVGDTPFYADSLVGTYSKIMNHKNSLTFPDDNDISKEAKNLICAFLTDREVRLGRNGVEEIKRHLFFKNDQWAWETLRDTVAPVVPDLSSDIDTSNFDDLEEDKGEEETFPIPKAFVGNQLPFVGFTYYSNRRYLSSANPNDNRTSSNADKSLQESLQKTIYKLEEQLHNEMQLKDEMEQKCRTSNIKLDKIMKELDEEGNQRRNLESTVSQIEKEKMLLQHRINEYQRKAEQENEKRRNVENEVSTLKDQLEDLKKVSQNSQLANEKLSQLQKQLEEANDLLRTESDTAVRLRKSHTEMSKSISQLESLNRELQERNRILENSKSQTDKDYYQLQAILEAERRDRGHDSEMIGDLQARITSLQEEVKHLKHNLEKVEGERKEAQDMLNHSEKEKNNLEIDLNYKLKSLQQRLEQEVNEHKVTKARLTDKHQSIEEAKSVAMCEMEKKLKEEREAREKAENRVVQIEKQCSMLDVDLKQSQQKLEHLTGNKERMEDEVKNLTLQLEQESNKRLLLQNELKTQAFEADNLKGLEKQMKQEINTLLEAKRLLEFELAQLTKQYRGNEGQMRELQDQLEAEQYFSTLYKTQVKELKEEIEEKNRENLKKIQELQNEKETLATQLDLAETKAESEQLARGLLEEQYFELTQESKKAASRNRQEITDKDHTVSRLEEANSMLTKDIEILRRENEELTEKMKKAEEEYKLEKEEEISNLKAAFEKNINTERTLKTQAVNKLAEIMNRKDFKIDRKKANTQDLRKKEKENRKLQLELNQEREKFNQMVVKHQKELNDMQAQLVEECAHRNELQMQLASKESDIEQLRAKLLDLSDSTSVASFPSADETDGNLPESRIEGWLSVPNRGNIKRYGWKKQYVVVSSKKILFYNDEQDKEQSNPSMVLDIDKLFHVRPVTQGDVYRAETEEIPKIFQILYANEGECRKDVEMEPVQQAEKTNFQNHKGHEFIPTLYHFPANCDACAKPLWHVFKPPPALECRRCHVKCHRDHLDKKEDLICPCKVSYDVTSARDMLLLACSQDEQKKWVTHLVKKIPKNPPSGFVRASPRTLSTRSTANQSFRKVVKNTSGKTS

[17] = target: Calcium/calmodulin-dependent protein kinase kinase 2 (Homo sapiens) (UniProt Q96RR4); conditions: Compound concentration 1000.0 nM
[18] = target: Delta-type opioid receptor (Homo sapiens) (UniProt P41143); conditions: Compound concentration 10.0 uM
[19] = target: TGF-beta receptor type-1 (Homo sapiens) (UniProt P36897); conditions: Compound concentration 1000.0 nM
[20] = target: Mitogen-activated protein kinase 3 (Homo sapiens) (UniProt P27361); conditions: Compound concentration 1000.0 nM
[21] = target: cGMP-dependent protein kinase 1 (Homo sapiens) (UniProt Q13976); conditions: Compound concentration 1000.0 nM
[22] = target: Activin receptor type-2A (Homo sapiens) (UniProt P27037); conditions: Compound concentration 1000.0 nM
[23] = target: Cyclin-dependent kinase 4 (Homo sapiens) (UniProt P11802); conditions: Compound concentration 1000.0 nM
[24] = target: Tyrosine-protein kinase receptor TYRO3 (Homo sapiens) (UniProt Q06418); conditions: Compound concentration 1000.0 nM
[25] = tested on: eIF-2-alpha kinase GCN2 (Homo sapiens), Q9P2K8 [S808G]; conditions: Compound concentration 1000.0 nM
[26] = tested on: Phosphatidylinositol 4,5-bisphosphate 3-kinase catalytic subunit alpha isoform (Homo sapiens), P42336 [I800L]; conditions: Compound concentration 1000.0 nM
[27] = target: Dual specificity mitogen-activated protein kinase kinase 4 (Homo sapiens) (UniProt P45985); conditions: Compound concentration 1000.0 nM
[28] = target: Atypical kinase COQ8A, mitochondrial (Homo sapiens) (UniProt Q8NI60); conditions: Compound concentration 1000.0 nM
[29] = target: Serine/threonine-protein kinase WNK4 (Homo sapiens) (UniProt Q96J92); conditions: Compound concentration 1000.0 nM
[30] = target: Non-receptor tyrosine-protein kinase TYK2 (Homo sapiens) (UniProt P29597); conditions: Compound concentration 1000.0 nM
[31] = target: Alpha-2C adrenergic receptor (Homo sapiens) (UniProt P18825); conditions: Compound concentration 10.0 uM
Alpha-2C adrenergic receptor (Homo sapiens), sequence (P18825 whole entry): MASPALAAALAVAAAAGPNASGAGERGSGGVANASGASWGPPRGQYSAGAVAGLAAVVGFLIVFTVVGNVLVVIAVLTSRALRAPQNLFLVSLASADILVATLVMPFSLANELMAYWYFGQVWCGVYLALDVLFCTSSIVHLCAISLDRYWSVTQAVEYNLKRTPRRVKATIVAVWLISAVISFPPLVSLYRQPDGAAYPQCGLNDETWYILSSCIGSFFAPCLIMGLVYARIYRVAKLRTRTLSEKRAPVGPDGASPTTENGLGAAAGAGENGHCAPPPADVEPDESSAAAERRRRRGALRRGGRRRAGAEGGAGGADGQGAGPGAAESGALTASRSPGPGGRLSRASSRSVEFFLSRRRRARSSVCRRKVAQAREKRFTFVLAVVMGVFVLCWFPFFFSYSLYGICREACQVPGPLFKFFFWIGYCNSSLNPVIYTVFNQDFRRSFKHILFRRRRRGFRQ

[32] = target: Mitogen-activated protein kinase kinase kinase 13 (Homo sapiens) (UniProt O43283); conditions: Compound concentration 1000.0 nM
[33] = target: Beta-2 adrenergic receptor (Homo sapiens) (UniProt P07550); conditions: Compound concentration 10.0 uM
[34] = target: Proto-oncogene tyrosine-protein kinase receptor Ret (Homo sapiens) (UniProt P07949); conditions: Compound concentration 1000.0 nM
Proto-oncogene tyrosine-protein kinase receptor Ret (Homo sapiens), sequence (P07949 whole entry, canonical isoform): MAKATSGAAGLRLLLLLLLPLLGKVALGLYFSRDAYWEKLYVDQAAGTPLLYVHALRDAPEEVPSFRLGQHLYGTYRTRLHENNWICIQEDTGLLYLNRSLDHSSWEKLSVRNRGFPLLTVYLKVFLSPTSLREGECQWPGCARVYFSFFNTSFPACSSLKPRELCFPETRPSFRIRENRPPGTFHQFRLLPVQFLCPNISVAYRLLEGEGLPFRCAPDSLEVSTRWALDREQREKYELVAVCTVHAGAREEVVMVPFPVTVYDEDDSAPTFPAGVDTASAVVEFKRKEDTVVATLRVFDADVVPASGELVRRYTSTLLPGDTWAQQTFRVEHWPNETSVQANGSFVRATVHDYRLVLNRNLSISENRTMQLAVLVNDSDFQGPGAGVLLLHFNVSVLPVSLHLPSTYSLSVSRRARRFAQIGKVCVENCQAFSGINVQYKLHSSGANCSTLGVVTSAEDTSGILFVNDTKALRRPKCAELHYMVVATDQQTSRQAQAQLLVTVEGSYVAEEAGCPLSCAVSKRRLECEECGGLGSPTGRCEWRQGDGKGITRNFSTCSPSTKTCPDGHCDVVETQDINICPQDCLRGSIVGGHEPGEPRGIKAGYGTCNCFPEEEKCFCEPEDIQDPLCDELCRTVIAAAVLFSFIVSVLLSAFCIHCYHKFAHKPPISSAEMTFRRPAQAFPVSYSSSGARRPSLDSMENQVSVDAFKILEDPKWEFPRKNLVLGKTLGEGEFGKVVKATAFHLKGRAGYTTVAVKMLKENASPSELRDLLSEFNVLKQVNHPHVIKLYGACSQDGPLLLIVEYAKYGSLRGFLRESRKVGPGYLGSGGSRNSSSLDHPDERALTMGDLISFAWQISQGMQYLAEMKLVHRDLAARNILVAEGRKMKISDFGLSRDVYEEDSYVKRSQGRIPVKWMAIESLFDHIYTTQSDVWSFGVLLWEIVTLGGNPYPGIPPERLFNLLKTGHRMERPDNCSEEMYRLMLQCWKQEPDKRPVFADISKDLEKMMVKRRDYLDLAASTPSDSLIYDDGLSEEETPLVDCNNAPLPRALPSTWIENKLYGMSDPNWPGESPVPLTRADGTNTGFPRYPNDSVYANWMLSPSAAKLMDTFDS

[35] = target: Phosphatidylinositol 4,5-bisphosphate 3-kinase catalytic subunit delta isoform (Homo sapiens) (UniProt O00329); conditions: Compound concentration 1000.0 nM
[36] = target: Mitogen-activated protein kinase kinase kinase 15 (Homo sapiens) (UniProt Q6ZN16); conditions: Compound concentration 1000.0 nM
[37] = target: Hormonally up-regulated neu tumor-associated kinase (Homo sapiens) (UniProt P57058); conditions: Compound concentration 1000.0 nM
Hormonally up-regulated neu tumor-associated kinase (Homo sapiens), sequence (P57058 whole entry): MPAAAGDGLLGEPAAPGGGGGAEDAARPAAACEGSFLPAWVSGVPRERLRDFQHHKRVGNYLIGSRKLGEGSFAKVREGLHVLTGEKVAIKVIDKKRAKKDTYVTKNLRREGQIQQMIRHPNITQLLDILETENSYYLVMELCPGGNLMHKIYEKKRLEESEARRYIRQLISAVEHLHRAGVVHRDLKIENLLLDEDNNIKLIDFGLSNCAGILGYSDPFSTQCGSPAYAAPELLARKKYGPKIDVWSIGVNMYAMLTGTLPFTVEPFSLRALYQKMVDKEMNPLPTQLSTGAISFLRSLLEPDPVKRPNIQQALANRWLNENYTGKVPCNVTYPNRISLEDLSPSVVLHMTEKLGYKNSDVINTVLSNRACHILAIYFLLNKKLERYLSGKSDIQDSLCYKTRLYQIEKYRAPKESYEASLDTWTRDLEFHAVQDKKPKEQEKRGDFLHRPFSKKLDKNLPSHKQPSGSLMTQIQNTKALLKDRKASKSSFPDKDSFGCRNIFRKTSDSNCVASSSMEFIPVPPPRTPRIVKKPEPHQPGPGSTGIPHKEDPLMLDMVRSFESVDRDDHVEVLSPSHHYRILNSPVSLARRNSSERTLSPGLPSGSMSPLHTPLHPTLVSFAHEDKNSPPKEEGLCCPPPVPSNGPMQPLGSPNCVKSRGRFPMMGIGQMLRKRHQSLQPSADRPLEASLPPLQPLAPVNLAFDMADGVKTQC

[38] = target: Receptor tyrosine-protein kinase erbB-2 (Homo sapiens) (UniProt P04626); conditions: Compound concentration 1000.0 nM
Receptor tyrosine-protein kinase erbB-2 (Homo sapiens), sequence (P04626 whole entry): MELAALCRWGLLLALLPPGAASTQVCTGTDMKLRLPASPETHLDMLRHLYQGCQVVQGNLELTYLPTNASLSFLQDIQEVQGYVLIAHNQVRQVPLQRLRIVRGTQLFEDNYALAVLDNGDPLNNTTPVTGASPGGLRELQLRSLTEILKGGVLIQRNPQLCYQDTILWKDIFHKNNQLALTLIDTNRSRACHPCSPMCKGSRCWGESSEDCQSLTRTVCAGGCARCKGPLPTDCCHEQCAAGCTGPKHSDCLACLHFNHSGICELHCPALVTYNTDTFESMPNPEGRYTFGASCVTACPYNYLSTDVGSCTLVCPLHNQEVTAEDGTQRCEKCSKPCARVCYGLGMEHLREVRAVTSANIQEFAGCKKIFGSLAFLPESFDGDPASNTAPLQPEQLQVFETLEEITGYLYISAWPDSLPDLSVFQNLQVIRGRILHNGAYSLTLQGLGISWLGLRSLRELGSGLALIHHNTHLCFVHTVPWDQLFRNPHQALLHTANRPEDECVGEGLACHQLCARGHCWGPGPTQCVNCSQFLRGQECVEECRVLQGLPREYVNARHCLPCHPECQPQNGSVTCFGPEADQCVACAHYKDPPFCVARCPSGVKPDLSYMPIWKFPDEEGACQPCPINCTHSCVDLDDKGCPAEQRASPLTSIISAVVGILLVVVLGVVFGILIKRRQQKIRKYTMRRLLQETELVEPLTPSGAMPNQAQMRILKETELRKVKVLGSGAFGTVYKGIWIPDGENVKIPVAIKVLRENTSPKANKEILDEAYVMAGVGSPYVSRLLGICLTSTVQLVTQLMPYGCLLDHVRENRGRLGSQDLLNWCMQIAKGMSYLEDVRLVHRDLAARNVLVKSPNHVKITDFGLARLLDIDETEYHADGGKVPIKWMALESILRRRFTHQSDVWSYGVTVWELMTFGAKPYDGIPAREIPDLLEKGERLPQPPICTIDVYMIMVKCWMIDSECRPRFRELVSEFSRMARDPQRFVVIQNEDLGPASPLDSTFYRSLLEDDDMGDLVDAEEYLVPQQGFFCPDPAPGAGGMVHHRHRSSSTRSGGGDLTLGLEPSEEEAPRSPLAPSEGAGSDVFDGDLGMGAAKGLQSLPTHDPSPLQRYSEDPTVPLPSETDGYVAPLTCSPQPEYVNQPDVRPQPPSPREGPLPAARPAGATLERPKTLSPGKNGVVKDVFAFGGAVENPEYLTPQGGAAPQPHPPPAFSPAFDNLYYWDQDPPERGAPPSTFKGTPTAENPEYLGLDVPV

[39] = target: Serine/threonine-protein kinase 4 (Homo sapiens) (UniProt Q13043); conditions: Compound concentration 1000.0 nM

Cn1cncc1[C@](O)(COc1ccc(C#N)cc1-c1ccc(OC(F)(F)F)cc1)c1ccc(C#N)cc1 [ABT-100]
inactive: residual activity [1] 100% | residual activity [2] 100% | residual activity [3] 95% | residual activity [4] 83% | residual activity [5] 77% | residual activity [6] 89% | residual activity [7] 100% | inhibition [8] -1.86% | residual activity [9] 77% | residual activity [10] 100% | inhibition [11] 17.6% | inhibition [12] -6.36% | residual activity [13] 100% | residual activity [14] 100% | residual activity [15] 100% | residual activity [16] 100% | residual activity [17] 100% | inhibition [18] -0.182% | residual activity [19] 81% | residual activity [20] 90% | residual activity [21] 91% | residual activity [22] 100% | residual activity [23] 100% | residual activity [24] 61% | residual activity [25] 99% | residual activity [26] 85% | residual activity [27] 89% | residual activity [28] 92% | residual activity [29] 100% | residual activity [30] 100% | inhibition [31] 5% | residual activity [32] 100% | inhibition [33] 0.0774% | residual activity [34] 94% | residual activity [35] 79% | residual activity [36] 90% | residual activity [37] 68% | residual activity [38] 100% | residual activity [39] 86%

Cn1cncc1[C@@](O)(COc1ccc(C#N)cc1-c1ccc(OC(F)(F)F)cc1)c1ccc(C#N)cc1 [A-108]
inactive: residual activity [1] 100% | residual activity [2] 100% | residual activity [3] 100% | residual activity [4] 100% | residual activity [5] 100% | residual activity [6] 100% | residual activity [7] 100% | inhibition [8] 9.56% | residual activity [9] 97% | residual activity [10] 100% | inhibition [11] -0.62% | inhibition [12] -3.79% | residual activity [13] 90% | residual activity [14] 100% | residual activity [15] 100% | residual activity [16] 100% | residual activity [17] 97% | inhibition [18] 2.4% | residual activity [19] 78% | residual activity [20] 83% | residual activity [21] 94% | residual activity [22] 98% | residual activity [23] 100% | residual activity [24] 100% | residual activity [25] 100% | residual activity [26] 84% | residual activity [27] 100% | residual activity [28] 100% | residual activity [29] 85% | residual activity [30] 100% | inhibition [31] 8.51% | residual activity [32] 72% | inhibition [33] 23.1% | residual activity [34] 100% | residual activity [35] 84% | residual activity [36] 83% | residual activity [37] 100% | residual activity [38] 94% | residual activity [39] 100%

— ChEMBL document CHEMBL4507257, “Data for DCP probe ABT-100” (2021)
